Results as given in ChEMBL document CHEMBL4321837, “Discovery of Potent and Orally Effective Dual Janus Kinase 2/FLT3 Inhibitors for the Treatment of Acute Myelogenous Leukemia and Myeloproliferative Neoplasms” (J Med Chem, 2019).
Calls of active or inactive are those of the source. The rule behind the calls is not given here.

Key:
[1] = Intrinsic clearance in monkey liver microsomes; assay type: ADME, Macaca mulatta, Microsome; details: rhesus monkey
[2] = system: MV4-11; experiment: Induction of cell cycle arrest in human MV4-11 cells assessed as accumulation at G0/G1 phase at 0.1 uM after 24 hrs by propidium iodide staining based flow cytometry analysis (reference value: 54.49%); assay type: functional
[3] = species: Homo sapiens; experiment: Inhibition of JAK2 V617F mutant/FLT3 in human SET2 cells assessed as reduction in JAK2 phosphorylation at 0.2 uM after 2 hrs by Western blot analysis; assay type: cell-based
[4] = Intrinsic clearance in human liver microsomes; assay type: ADME, Microsome
[5] = target: CDK4/Cyclin D3 (Homo sapiens, UniProt P11802); experiment: Inhibition of recombinant full length human CDK4/CyclinD3 using Rb fragment as substrate incubated for 30 mins in presence of [gamma33P]-ATP by scintillation counting based radiometry assay; assay type: protein-complex assay
Chain of CDK4/Cyclin D3 (P11802 whole entry, the tested form may be a part): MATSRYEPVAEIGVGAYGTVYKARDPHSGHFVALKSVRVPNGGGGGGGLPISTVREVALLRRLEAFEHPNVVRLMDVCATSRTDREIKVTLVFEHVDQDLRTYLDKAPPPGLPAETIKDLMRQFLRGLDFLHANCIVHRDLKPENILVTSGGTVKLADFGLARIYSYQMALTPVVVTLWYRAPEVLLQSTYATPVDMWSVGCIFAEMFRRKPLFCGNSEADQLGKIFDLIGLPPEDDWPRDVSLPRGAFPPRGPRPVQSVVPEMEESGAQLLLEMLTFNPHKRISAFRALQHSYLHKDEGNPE
Chain of CDK4/Cyclin D3 (P30281 whole entry, further chain, the tested form may be a part): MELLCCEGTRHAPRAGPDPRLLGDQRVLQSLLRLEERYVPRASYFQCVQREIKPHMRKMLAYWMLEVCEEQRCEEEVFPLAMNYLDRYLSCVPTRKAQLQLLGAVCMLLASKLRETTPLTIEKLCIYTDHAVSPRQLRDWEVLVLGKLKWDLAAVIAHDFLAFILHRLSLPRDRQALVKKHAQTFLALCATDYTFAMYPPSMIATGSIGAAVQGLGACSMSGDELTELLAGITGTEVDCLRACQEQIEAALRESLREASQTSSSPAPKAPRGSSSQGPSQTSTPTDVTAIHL

[6] = system: MV4-11; experiment: Induction of cell cycle arrest in human MV4-11 cells assessed as accumulation at G0/G1 phase at 0.01 uM after 24 hrs by propidium iodide staining based flow cytometry analysis (reference value: 54.49%); assay type: functional
[7] = Terminal elimination half life in Sprague-Dawley rat at 5 mg/kg, po measured up to 24 hrs by LC/MS/MS analysis; assay type: ADME, organism-based; details: in vivo, 24 h
[8] = system: MV4-11; experiment: Induction of apoptosis in human MV4-11 cells assessed as late apoptotic cells at 0.4 uM after 24 hrs by Annexin V FITC/PI staining based flow cytometry analysis (reference value: 1.38%); assay type: functional
[9] = target: Tyrosine-protein kinase Lck (Homo sapiens, UniProt P06239); experiment: Inhibition of recombinant human full length human LCK using KVEKIGEGTYGVV as substrate incubated for 40 mins in presence of [gamma33P]-ATP by scintillation counting based radiometry assay
Chain of Tyrosine-protein kinase Lck (P06239 whole entry): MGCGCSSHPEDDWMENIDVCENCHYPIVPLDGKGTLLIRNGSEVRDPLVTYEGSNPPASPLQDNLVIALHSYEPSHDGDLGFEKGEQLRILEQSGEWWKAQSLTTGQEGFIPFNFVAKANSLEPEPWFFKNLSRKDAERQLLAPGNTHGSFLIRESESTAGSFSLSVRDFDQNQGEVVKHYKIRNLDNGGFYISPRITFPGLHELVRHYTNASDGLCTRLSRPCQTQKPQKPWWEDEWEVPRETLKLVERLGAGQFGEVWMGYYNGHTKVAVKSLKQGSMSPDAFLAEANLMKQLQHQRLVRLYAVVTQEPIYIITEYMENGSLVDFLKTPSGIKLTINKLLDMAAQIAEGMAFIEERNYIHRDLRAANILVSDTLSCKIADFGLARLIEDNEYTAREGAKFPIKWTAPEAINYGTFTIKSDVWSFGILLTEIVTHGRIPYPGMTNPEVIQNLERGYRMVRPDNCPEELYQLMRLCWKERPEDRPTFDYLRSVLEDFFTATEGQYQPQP

[10] = system: MV4-11; experiment: Induction of apoptosis in human MV4-11 cells assessed as necrotic cells at 0.2 uM after 24 hrs by Annexin V FITC/PI staining based flow cytometry analysis (reference value: 0.18%); assay type: functional
[11] = system: MV4-11; experiment: Induction of apoptosis in human MV4-11 cells assessed as early apoptotic cells at 0.05 uM after 24 hrs by Annexin V FITC/PI staining based flow cytometry analysis (reference value: 2.14%); assay type: functional
[12] = system: MV4-11; experiment: Induction of apoptosis in human MV4-11 cells assessed as viable cells at 0.05 uM after 24 hrs by Annexin V FITC/PI staining based flow cytometry analysis (reference value: 96.3%); assay type: functional; details: MV4-11, 24 h, read-out: Activity
[13] = Intrinsic clearance in rat liver microsomes; assay type: ADME, Microsome
[14] = system: SET-2; experiment: Antitumor activity against human SET2 cells overexpressing JAK2 V617F mutant xenografted in NOD/SCID mouse assessed as tumor growth inhibition at 30 mg/kg, po qd for 18 days measured every 2 days for 18 days by caliper method relative to control; assay type: functional; details: SET-2, po, read-out: TGI
[15] = Half life in mouse liver microsomes; assay type: ADME, Microsome
[16] = target: Cytochrome P450 2C9 (Homo sapiens, UniProt P11712); experiment: Inhibition of CYP2C9 (unknown origin); assay type: ADME
Chain of Cytochrome P450 2C9 (P11712 whole entry): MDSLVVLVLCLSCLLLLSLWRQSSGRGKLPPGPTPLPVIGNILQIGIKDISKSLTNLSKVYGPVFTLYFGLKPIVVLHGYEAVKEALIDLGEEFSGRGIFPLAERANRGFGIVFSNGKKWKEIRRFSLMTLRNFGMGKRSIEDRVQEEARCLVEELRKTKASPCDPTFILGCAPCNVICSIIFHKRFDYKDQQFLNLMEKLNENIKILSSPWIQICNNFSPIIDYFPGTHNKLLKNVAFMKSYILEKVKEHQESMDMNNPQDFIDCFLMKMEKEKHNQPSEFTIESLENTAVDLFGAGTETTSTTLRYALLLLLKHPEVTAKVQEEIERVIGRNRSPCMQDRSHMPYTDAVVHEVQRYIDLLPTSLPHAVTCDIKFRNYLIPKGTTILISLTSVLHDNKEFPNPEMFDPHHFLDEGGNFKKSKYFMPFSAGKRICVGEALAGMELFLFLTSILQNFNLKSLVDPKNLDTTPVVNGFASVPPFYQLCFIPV

[17] = target: T1, Tyrosine-protein kinase JAK3 (Homo sapiens) (UniProt P52333); experiment: Inhibition of human JAK3 (781 to end residues) assessed as residual activity at 100 nM using GGEEEEYFELVKK as substrate after 40 mins in presence of [gamma33P]-ATP by scintillation counting based radiometric assay relative to control
T1 sequence (whole entry): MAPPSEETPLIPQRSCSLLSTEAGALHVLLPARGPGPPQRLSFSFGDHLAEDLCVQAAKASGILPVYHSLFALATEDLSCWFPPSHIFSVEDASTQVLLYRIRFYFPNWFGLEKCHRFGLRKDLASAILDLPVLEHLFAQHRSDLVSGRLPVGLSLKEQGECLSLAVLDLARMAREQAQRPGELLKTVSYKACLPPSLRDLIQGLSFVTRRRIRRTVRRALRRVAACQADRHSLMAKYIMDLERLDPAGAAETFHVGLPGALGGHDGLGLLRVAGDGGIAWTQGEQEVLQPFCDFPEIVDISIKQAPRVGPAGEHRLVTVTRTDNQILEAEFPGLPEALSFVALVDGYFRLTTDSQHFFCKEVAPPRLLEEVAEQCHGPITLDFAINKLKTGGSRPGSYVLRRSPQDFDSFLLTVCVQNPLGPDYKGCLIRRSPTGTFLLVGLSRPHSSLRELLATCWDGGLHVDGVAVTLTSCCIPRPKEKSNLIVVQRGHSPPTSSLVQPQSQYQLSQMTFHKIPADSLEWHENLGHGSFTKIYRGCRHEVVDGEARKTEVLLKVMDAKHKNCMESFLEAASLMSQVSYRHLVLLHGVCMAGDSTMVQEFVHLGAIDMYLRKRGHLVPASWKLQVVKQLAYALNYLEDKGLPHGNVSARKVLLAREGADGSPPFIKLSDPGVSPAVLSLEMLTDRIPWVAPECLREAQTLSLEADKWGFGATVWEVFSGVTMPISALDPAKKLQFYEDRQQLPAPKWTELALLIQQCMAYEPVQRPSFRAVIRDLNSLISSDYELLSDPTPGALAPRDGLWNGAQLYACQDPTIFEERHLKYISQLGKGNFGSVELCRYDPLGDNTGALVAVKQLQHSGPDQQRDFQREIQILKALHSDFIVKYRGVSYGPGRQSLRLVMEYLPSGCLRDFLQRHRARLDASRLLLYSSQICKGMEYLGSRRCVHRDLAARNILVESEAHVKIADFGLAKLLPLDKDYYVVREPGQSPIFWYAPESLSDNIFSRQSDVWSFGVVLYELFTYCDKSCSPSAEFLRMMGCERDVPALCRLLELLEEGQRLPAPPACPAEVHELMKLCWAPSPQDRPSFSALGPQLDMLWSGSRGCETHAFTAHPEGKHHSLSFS

[18] = Cmax in Sprague-Dawley rat at 5 mg/kg, po measured up to 24 hrs by LC/MS/MS analysis; assay type: ADME, organism-based; set-up: dose 5 mg/kg, route oral; details: in vivo, 24 h
[19] = system: MV4-11; experiment: Induction of apoptosis in human MV4-11 cells assessed as early apoptotic cells at 1.6 uM after 24 hrs by Annexin V FITC/PI staining based flow cytometry analysis (reference value: 2.14%); assay type: functional
[20] = system: MV4-11; experiment: Induction of apoptosis in human MV4-11 cells assessed as necrotic cells at 0.8 uM after 24 hrs by Annexin V FITC/PI staining based flow cytometry analysis (reference value: 0.18%); assay type: functional
[21] = system: MV4-11; experiment: Induction of apoptosis in human MV4-11 cells assessed as viable cells at 0.2 uM after 24 hrs by Annexin V FITC/PI staining based flow cytometry analysis (reference value: 96.3%); assay type: functional; details: MV4-11, 24 h, read-out: Activity
[22] = system: MV4-11; experiment: Induction of apoptosis in human MV4-11 cells assessed as necrotic cells at 1.6 uM after 24 hrs by Annexin V FITC/PI staining based flow cytometry analysis (reference value: 0.18%); assay type: functional
[23] = Intrinsic clearance in mouse liver microsomes; assay type: ADME, Microsome
[24] = system: MV4-11; experiment: Induction of apoptosis in human MV4-11 cells assessed as necrotic cells at 0.05 uM after 24 hrs by Annexin V FITC/PI staining based flow cytometry analysis (reference value: 0.18%); assay type: functional

Cc1cnc(Nc2ccc(N3CCC(N(C)CCO)CC3)c(F)c2)nc1-c1cnn(C(C)C)c1
CLH [1]: 0.5 µL/min/mg | Activity [2]: 84.71% | inhibition [3]: Active | CLH [4]: 2.4 µL/min/mg | IC50 [5]: 18 nM | Activity [6]: 58.55% | beta t1/2 [7]: 4.1 h | Activity [8]: 26.5% | IC50 [9]: 27 nM | Activity [10]: 0.75% | Activity [11]: 5.53% | viability at 0.05 µM [12]: 89.6% | CLH [13]: 0.9 µL/min/mg | inhibition in vivo at 30 mg/kg [14]: 66% | half-life [15]: 6.42 h | IC50 [16]: 78100 nM | Activity [17]: 36% | Cmax [18]: 102 ng/mL | Activity [19]: 33.6% | Activity [20]: 0.93% | viability at 0.2 µM [21]: 77.4% | Activity [22]: 0.68% | CLH [23]: 1.8 µL/min/mg | Activity [24]: 0.29%
